Data: patent EP0782997A2, “Triazolopyrimidine derivatives” (SHELL INTERNATIONALE RESEARCH MAATSCHAPPIJ B.V., priority 1991, dated 1993)
In brackets after ≈: the same amount, converted by molar mass.

What was measured:
Rhizoctonia solani = experiment: Activity against Rhizoctonia in-vitro (RSI), Example 120; type: cell-based; settings: 50 ppm compound, 2.5% acetone, 20°C, 10 days, mycelial growth, rating
Venturia inaequalis = experiment: Fungicidal activity against Venturia inaequalis on Malus sp. (apple cuttings, protectant spray); type: in vivo; design: key: 0 = no infection; 1 = 1-10% infection; 2 = 11-40% infection; 3 = 41-100% infection; settings: extent of infection score; apple cuttings variety Morgenduft; test compound 400 ppm; infected after 24 hours; assessed after about 14 days
Experimental: Fungicidal activity against Venturia inaequalis on Malus sp.
Apple cuttings of the variety Morgenduft, which are about 6 weeks old, were treated with a solution of the test compound (400 ppm) in water/acetone/Triton X or water/methanol/Triton X. After 24 hours, the plants were infected with a conidia suspension of Venturia inaequalis (about 50,000 conidia/ml), incubated in a dark climatic chamber at a relative humidity of 100% for 48 hours and then kept at a relative humidity of 95-99% and temperature of 18-20°C during the day and 13°C during the night for about 14 days. The extent of infection was assessed according to the following scheme:- • 0 = no infection • 1 = 1-10% infection • 2 = 11-40% infection • 3 = 41-100% infection The results of these tests are set out in Table II below:-

Botrytis cinerea [1] = experiment: MIC determination by serial dilution in microtitre plates; type: cell-based; settings: lowest concentration without mycelial growth, V8 juice nutrient solution, 20°C, 6-8 days, visual inspection
Experimental: (§1) Determination of MIC-Values of compounds against various phytopathogenic fungi
(§2) The MIC (Minimum Inhibition Concentration)-values were determined by serial dilution tests using 48-well microtitre plates. The dilution of the test compounds in the nutrient solution and the distribution to the wells were carried out by a TECAN RSP 5000 robotic sample processor.
(§3) For preparation of the nutrient solution, V8 juice (Trade Mark) was neutralised with calcium carbonate and centrifuged. The supernatant was diluted with distilled water (1:5) to the final concentration.
(§4) The fungi (Alternaria solani, Botrytis cinerea, Septoria nodorum) were added into the wells as a droplet of spore suspension. The microtitre plates were then incubated at 20°C for 6-8 days. The MIC-value was determined by visual inspection of the plates. In the case of Alternaria solani and Botrytis cinerea, the lowest concentration in the dilution series without mycelial growth was defined to be the MIC-value. For Septoria nodorum, no MIC-value but only a strong inhibition of growth was regularly observed.

Alternaria solani [2] = experiment: as above; type: cell-based; settings: lowest concentration without mycelial growth, V8 juice nutrient solution, 20°C, 6-8 days, visual inspection
Experimental: as §1, §2, §3, §4

[3] = test system: Erysiphe graminis f.sp. hordei; experiment: Activity against barley powdery mildew (EG), Example 120; type: in vivo; settings: barley seedlings, foliar spray 1000 ppm, direct therapeutic; disease control rating
Leptosphaeria nodorum = experiment: Activity against wheat leafspot (LN), Example 120; type: in vivo; settings: wheat plants, foliar spray 1000 ppm, direct therapeutic; disease control rating
Pyricularia oryzae = type: in vivo; settings: rice seedlings, foliar spray 1000 ppm, direct therapeutic; disease control rating
Botrytis cinerea [4] = experiment: Direct protectant activity against broad bean grey mould (BCB), Example 120; type: in vivo; settings: broad bean plants, foliar spray 1000 ppm, disease control rating
Alternaria solani [5] = experiment: Activity against tomato early blight (AS), Example 120; type: in vivo; settings: tomato seedlings, foliar spray as described under (a) (1000 ppm), contact prophylactic; disease control rating
[6] = test system: Pseudocercosporella herpotrichoides; experiment: Activity against wheat eyespot in-vitro (PHI), Example 120; type: cell-based; settings: 50 ppm compound, 2.5% acetone, 20°C, 12 days, mycelial growth, rating

**Q.** Which “Fungicidal Activity RSI” value (Rhizoctonia solani) does the source give for `CC(C)Nc1c(-c2ccccc2F)c(Cl)nc2ncnn12` [Example 41] here?
**A.** 2 (2 = greater than 80% disease control)

**Q.** What about the Activity (Venturia inaequalis) of the same compound?
**A.** 0

**Q.** And the MIC (Botrytis cinerea [1])?
**A.** 25 µg/mL (≈ 81.8 µM)

**Q.** And the MIC (Alternaria solani [2])?
**A.** 12.5 µg/mL (≈ 40.9 µM)

**Q.** And the “Fungicidal Activity EG” value [3]?
**A.** 2 (2 = greater than 80% disease control)

**Q.** What about the “Fungicidal Activity LN” value (Leptosphaeria nodorum) of the same compound?
**A.** 2 (2 = greater than 80% disease control)

**Q.** What about the “Fungicidal Activity PO” value (Pyricularia oryzae) of the same compound?
**A.** 2 (2 = greater than 80% disease control)

**Q.** And the “Fungicidal Activity BCB” value (Botrytis cinerea [4])?
**A.** 2 (2 = greater than 80% disease control)

**Q.** And the “Fungicidal Activity AS” value (Alternaria solani [5])?
**A.** 2 (2 = greater than 80% disease control)

**Q.** And the “Fungicidal Activity PHI” value [6]?
**A.** 1 (1 = about 50-80% disease control)

**Q.** With `COc1ccc(-c2cnc3ncnn3c2NC2CCCC2)cc1` [Example 3, 6-(4-methoxyphenyl)-7-cyclopentylamino-1,2,4-triazolo[1,5-a]pyrimidine] as the compound, how does the Activity (Venturia inaequalis) read?
**A.** 2.5

**Q.** Which Activity (Venturia inaequalis) does the source give for `CNc1nc2ncnn2c(NC2CCCC2)c1-c1ccccc1` [Example 4, 5-methylamino-6-phenyl-7-cyclopentylamino-1,2,4-triazolo[1,5-a]pyrimidine] here?
**A.** 2.3

**Q.** `Brc1nc2ncnn2c(NC2CCCC2)c1-c1ccccc1` [Example 2, 5-bromo-6-phenyl-7-cyclopentylamino-1,2,4-triazolo[1,5-a]pyrimidine] was tested. Which Activity (Venturia inaequalis) did it give?
**A.** 0

**Q.** How did the MIC (Botrytis cinerea [1]) turn out when `Clc1ccccc1-c1c(I)nc2ncnn2c1NC1CCCC1` [Example 6, 5-iodo-6-(2-chlorophenyl)-7-cyclopentylamino-1,2,4-triazolo[1,5-a]pyrimidine] was run?
**A.** 6.25 µg/mL (≈ 14.2 µM)

**Q.** And the MIC (Alternaria solani [2])?
**A.** 3.13 µg/mL (≈ 7.12 µM)

**Q.** How did the Activity (Venturia inaequalis) turn out when `Cc1ccc(-c2c(Cl)nc3ncnn3c2NC2CCCC2)cc1` [Example 1, 5-chloro-6-(4-methylphenyl)-7-cyclo-pentylamino-1,2,4-triazolo[1,5-a]pyrimidine] was run?
**A.** 1 (1 = 1-10% infection)

**Q.** And the MIC (Botrytis cinerea [1])?
**A.** 12.5 µg/mL (≈ 38.1 µM)

**Q.** What about the MIC (Alternaria solani [2]) of the same compound?
**A.** 1.56 µg/mL (≈ 4.76 µM)
